Read-outs that look alike come from different tables or passages of the source.
Assays:
[1] = Portal vein and femoral vein plasma pharmacokinetics after oral EZE; format: in vivo, rats; settings: oral 10 mg/kg EZE; for AUC(0-t): Sprague-Dawley, rat, po, 10 mg/kg
Procedure: To investigate changes due to the first-pass metabolism and biliary excretion during liver disease, CCl4-induced rats (n = 5) and control rats (n = 5) were anesthetized and the hepatic portal and femoral veins were cannulated with PE-50 polyethylene tubing. EZE was orally administered to rats at 10 mg/kg. Blood samples were collected simultaneously from the hepatic portal and femoral veins before administration (0 h), at 5, 15, and 30 min, and at 1, 2, 4, 6, 8, 12, 24, and 48 h after administration. Plasma samples were harvested as previously described.
(§1) A 25.0 μL aliquot of each sample and 25.0 μL of internal standard (50.0 ng/mL EZE-d4) were mixed with 100 μL of acetonitrile. After the samples were vortexed and centrifugated at 2250 g for 15 min, the supernatants were used to measure EZE and its metabolites by LC-MS/MS.
(§2) WinNonlin version 6.1 (Pharsight Corp., Cary, NC, USA) was used to calculate the pharmacokinetic parameters in a non-compartmental model. Statistical comparisons between the two groups were evaluated using a Student’s two-tailed unpaired t-test or the nonparametric Mann–Whitney test in GraphPad Prism (version 8.0, GraphPad Software Inc, SanDiego, CA, USA). A value of p < 0.05 was considered significant. All data were presented as the mean ± S.D. (n ≥ 3).

[2] = system: rat primary hepatocytes; assay: Uptake of EZE and EZE-Ph by rat primary hepatocytes; format: in vitro ADME; settings: 10 μM, 10 min, rat hepatocytes
Procedure: Rat primary hepatocytes were isolated from male SD rats as previously described [34]. Fresh rat hepatocytes (120,000 per well) were cultured in Williams’ E medium (containing 0.1 μM dexamethasone, 5% fetal bovine serum, 1% penicillin G/streptomycin, 1% GlutaMAX-I, and 1% insulin–transferrin–selenium) on collagen I-coated 48-well plates. Rat hepatocytes cultured for 4 h under a carbogen atmosphere were directly used for uptake assays.
The hepatocytes were rinsed three times with HBSS (37 °C) and equilibrated in HBSS for 10 min. […] After 10 min of incubation, cells were quickly washed three times with ice-cold HBSS and then lysed by the addition of 300 μL of purified water. The protein content was measured using the BCA protein assay kit. EZE and EZE-Ph were analyzed by LC-MS/MS.
The rates of substrate uptake were normalized using the protein contents of cell lysates.

[3] = system: UGTs; assay: Incubation of EZE with liver S9 fractions of control and CCl4-induced rats (glucuronidation); format: in vitro ADME, rat; settings: 60 min
Procedure: One portion of the rat liver tissue was homogenized in a 5-fold volume of ice-cold phosphate buffer (including 250 mM sucrose, 10 mM Tris-HCl, and 1 mM EDTA-2Na, pH 7.4) and centrifugated at 9000 g for 20 min. After centrifugation, the supernatant was collected as the S9 fraction and stored at −80 °C.
To evaluate the effect of hepatic impairment on the hepatic metabolism of EZE, 0.3 μM, 3 μM, and 30 μM EZE were incubated with rat liver S9 fractions (2 mg of protein/mL) at 37 °C for 60 min in the Tris-HCl-buffered system (100 mM, pH 7.4), consisting of UDPGA (1 mM), MgCl2 (10 mM), and alamethicin (25 μg/mL). To investigate the effect of bile acids on the metabolism of EZE in the liver, 3 μM EZE was incubated with rat or human liver S9 fractions (2 mg of protein/mL) at 37 °C for 60 min in the Tris-HCl-buffered system with or without bile acids at 1, 10, and 100 μM. The total volume of the incubation system was 100 μL. The reactions were terminated by adding 100 μL of ice-cold acetonitrile. Samples were stored at −20 °C until analysis. EZE and EZE-Ph were detected by liquid chromatography with tandem mass spectrometry (LC-MS/MS).

[4] = molecular target: T1, MRP3 (Homo sapiens, UniProt O15438); assay: Transport study with MRP3-expressing membrane vesicles; format: in vitro ADME; settings: MRP3 vesicles, 10 μM, 10 min
T1 construct: purchased GenoMembrane Co., Ltd. (Yokohama, Japan); host or cells: Sf9 insect cells
Procedure: (§3) Human MDR1-, MRP2-, and MRP3-expressing membrane vesicles isolated from Sf9 insect cells were sourced from GenoMembrane Co., Ltd. (Yokohama, Japan).
(§4) In transport studies, a modified rapid filtration technique was used according to the manufacturer’s protocol (GenoMembrane Co.). The uptake of test compounds (10 μM EZE or EZE-Ph) into membrane vesicles (100 μg protein/100 μL) was conducted with or without 4 mM ATP in the transport medium (50 μL, pH 7.4), which included 50 mM MOPS-Tris, 70 mM KCl, and 7.5 mM MgCl2. The vesicular transport was terminated after 10 min by adding 200 μL of ice-cold stop buffer containing 40 mM MOPS-Tris and 70 mM KCl. The stopped incubate was quickly transferred to a 96-well glass fiber filter plate (Millipore, MA, USA) and washed five times with ice-cold stop buffer. The EZE and EZE-Ph inside the vesicles were released by adding 200 μL of methanol–water (70:30, v/v) and analyzed by LC-MS/MS. The ATP-dependent transport was evaluated based on the ratio of transport with ATP to that without ATP.

[5] = Pharmacokinetics after intravenous or oral administration of 10 mg/kg EZE to control and CCl4-induced rats; format: in vivo; settings: for AUC(0-t) / Cmax / Tmax / half-life: Sprague-Dawley, rat, plasma, 10 mg/kg
Procedure: Animals were fasted for 12 h with free access to water before the experiments. EZE was administered orally (prepared in 0.5% carboxymethylcellulose sodium) or intravenously (dissolved in 10% dimethyl sulfoxide, 10% tween-80, and 80% sterile H2O) to CCl4-induced rats (n = 5) and control rats (n = 5) at 10 mg/kg. Blood samples were collected from the retro-orbital venous plexus before administration (0 h), at 5, 15, and 30 min, and at 1, 2, 4, 6, 8, 12, 24, and 48 h after administration in tubes containing EDTA-2K. Plasma samples were harvested by centrifugation at 11,600 g for 5 min at 4 °C and then stored at −80 °C until further analysis.
as §1, §2

[6] = molecular target: T2, MDR1 (Homo sapiens, UniProt P08183); assay: Transport study with MDR1-expressing membrane vesicles; format: in vitro ADME; settings: MDR1 vesicles, 10 μM, 10 min
T2 construct: purchased GenoMembrane Co., Ltd. (Yokohama, Japan); host or cells: Sf9 insect cells
Procedure: as §3, §4

[7] = molecular target: T3, MRP2 (Homo sapiens, UniProt Q92887); assay: Transport study with MRP2-expressing membrane vesicles; format: in vitro ADME; settings: MRP2 vesicles, 10 μM, 10 min
T3 construct: purchased GenoMembrane Co., Ltd. (Yokohama, Japan); host or cells: Sf9 insect cells
Procedure: as §3, §4

[8] = for Autosampler stability (4°C, 24 h), RE / Post-extraction stability (room temperature 3 h), RE / Freeze-thaw stability (−20°C, three cycles), RE / Short-term stability (room temperature 3 h), RE: n = 6; for Freeze-thaw stability (−20°C, three cycles), RE / Short-term stability (room temperature 3 h), RE: rat plasma
Procedure: The instrument parameters were as follows: ion spray voltage, −4500 V; source temperature, 550 °C; nebulizer gas, 60 psi; heater gas, 60 psi; and curtain gas, 40 psi. […] Data were acquired and processed with the Analyst 1.6.3 software (Applied Biosystems). The standard curve ranges were 1.00 to 1000 ng/mL for EZE, 3.00 to 3000 ng/mL for EZE-Ph, and 1.00 to 1000 ng/mL for EZE-Hy in plasma.
Summary of the stability of ezetimibe and its metabolites in rat plasma (n = 6).

[9] = iv, i.v. 10 mg/kg EZE, CCl4-induced rats
[10] = iv, i.v. 10 mg/kg EZE, control rats
[11] = po, p.o. 10 mg/kg EZE, CCl4-induced rats
[12] = po, p.o. 10 mg/kg EZE, control rats
[13] = intravenous injection of 10 mg/kg EZE

T3 sequence (Q92887 whole entry): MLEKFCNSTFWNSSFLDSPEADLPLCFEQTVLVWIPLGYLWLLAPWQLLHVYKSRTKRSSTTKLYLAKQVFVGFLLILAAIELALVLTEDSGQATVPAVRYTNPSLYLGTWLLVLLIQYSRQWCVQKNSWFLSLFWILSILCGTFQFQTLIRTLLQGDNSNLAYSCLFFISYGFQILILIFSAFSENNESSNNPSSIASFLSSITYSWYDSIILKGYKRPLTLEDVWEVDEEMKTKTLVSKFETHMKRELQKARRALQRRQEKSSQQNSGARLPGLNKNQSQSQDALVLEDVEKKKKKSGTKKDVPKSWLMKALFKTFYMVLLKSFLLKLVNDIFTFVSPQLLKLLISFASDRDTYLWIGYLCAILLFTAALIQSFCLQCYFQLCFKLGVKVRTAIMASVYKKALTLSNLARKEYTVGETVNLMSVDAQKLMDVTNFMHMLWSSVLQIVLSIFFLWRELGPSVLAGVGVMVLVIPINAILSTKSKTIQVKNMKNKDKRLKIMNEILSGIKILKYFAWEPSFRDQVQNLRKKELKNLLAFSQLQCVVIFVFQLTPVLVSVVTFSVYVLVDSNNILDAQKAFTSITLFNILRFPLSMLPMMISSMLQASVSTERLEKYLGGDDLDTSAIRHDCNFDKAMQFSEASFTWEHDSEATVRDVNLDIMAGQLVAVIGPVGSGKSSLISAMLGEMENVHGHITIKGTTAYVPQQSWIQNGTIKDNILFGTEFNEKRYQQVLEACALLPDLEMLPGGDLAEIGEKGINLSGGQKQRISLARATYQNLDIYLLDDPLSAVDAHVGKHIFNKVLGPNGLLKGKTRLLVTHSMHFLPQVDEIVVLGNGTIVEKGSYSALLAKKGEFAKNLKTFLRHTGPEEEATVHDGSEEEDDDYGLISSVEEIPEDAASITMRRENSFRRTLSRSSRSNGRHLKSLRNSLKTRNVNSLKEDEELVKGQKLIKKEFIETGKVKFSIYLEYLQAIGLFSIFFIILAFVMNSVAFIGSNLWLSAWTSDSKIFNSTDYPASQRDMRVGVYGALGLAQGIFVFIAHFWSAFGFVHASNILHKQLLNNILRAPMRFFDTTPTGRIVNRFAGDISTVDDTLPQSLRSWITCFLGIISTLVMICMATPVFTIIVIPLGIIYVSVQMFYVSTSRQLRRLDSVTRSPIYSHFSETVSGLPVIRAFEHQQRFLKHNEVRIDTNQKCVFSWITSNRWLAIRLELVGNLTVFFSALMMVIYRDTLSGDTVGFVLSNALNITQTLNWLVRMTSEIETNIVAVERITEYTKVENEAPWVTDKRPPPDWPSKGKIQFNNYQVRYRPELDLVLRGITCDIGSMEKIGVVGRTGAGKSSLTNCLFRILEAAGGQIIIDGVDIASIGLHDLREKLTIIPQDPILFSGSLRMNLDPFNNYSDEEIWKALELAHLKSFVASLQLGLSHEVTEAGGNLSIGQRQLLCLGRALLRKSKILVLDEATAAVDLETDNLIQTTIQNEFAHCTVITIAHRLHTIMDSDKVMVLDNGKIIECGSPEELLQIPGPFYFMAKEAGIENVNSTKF
T1 sequence (O15438 whole entry): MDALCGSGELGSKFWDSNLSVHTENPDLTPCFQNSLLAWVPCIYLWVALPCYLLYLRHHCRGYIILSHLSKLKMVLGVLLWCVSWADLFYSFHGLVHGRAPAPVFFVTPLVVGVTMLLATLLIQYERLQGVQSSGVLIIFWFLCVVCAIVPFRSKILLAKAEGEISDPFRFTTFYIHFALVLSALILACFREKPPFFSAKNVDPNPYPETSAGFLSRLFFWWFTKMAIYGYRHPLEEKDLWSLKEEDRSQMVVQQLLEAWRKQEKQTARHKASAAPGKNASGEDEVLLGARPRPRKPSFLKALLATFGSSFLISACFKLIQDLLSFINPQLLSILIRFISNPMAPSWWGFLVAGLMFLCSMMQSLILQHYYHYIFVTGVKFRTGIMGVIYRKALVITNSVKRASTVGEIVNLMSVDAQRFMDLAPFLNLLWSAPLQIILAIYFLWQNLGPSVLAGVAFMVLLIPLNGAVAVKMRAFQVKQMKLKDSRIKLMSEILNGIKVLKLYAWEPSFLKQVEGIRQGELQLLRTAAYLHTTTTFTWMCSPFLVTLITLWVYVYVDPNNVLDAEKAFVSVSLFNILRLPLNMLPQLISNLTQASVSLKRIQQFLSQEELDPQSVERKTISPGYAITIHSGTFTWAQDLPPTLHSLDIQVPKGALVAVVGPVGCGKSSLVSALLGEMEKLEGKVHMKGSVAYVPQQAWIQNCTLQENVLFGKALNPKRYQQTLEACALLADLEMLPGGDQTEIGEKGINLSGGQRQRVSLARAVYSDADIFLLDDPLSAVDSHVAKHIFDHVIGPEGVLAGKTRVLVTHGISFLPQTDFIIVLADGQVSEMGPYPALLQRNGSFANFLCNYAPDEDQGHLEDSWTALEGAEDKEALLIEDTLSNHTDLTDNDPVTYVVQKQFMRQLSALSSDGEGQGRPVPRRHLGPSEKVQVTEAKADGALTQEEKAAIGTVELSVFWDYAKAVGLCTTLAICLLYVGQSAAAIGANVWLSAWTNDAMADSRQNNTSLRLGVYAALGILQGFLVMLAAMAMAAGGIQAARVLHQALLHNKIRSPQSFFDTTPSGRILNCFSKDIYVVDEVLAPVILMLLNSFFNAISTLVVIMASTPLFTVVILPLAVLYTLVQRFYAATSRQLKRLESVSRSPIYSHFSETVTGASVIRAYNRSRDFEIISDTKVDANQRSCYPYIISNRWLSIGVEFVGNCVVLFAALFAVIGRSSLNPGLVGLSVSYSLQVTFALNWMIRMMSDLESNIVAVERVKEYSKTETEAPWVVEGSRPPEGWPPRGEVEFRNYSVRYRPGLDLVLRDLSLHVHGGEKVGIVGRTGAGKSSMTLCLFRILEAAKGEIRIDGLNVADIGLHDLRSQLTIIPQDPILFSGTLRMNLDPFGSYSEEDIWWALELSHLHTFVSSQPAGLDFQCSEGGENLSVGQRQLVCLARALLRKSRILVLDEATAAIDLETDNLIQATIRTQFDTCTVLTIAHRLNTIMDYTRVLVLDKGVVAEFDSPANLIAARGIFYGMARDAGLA
T2 sequence (P08183 whole entry): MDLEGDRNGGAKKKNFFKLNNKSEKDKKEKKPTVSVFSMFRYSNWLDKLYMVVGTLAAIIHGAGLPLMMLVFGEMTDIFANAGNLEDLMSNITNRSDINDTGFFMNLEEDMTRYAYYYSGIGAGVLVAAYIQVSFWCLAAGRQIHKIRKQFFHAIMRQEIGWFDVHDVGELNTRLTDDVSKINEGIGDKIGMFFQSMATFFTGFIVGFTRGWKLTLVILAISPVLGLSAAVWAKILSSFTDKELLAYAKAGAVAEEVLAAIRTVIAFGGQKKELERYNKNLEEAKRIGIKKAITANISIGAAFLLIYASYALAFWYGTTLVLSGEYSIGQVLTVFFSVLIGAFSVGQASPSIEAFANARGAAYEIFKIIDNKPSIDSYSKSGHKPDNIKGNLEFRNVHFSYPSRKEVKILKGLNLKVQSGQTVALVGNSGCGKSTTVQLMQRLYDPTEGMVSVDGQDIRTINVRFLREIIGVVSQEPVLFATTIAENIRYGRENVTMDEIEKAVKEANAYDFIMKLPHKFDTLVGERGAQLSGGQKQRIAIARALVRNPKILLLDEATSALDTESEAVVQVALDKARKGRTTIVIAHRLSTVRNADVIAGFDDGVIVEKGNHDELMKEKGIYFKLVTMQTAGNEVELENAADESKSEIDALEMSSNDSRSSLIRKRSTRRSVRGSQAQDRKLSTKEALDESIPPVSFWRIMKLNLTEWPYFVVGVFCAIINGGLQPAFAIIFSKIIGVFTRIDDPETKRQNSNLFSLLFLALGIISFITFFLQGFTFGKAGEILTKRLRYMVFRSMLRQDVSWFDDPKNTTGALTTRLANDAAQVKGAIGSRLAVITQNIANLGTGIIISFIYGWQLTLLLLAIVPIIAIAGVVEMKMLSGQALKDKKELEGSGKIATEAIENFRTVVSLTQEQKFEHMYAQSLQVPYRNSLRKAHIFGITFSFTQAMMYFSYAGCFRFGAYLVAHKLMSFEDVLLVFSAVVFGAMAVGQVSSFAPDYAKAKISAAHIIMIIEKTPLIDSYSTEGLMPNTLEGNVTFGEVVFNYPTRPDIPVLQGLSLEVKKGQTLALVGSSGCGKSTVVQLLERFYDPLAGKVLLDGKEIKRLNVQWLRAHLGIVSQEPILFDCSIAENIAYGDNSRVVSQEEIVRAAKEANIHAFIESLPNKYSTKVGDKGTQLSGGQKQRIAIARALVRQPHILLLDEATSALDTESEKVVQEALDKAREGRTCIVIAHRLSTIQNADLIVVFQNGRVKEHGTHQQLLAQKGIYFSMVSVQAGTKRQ

## O=C(O)[C@H]1O[C@@H](Oc2ccc([C@@H]3[C@@H](CC[C@H](O)c4ccc(F)cc4)C(=O)N3c3ccc(F)cc3)cc2)[C@H](O)[C@@H](O)[C@@H]1O [EZE-Ph, ezetimibe phenoxy β-D-glucuronide]
[1]; femoral vein plasma, CCl4-induced rats, read-out: AUC0–t in femoral vein plasma
  AUC(0-t): 12500 ng·h/mL
[1]; femoral vein plasma, control rats, read-out: AUC0–t in femoral vein plasma
  AUC(0-t): 2580 ng·h/mL
[1]; portal vein plasma, CCl4-induced rats, read-out: AUC0–t in portal vein plasma
  AUC(0-t): 15900 ng·h/mL
[1]; portal vein plasma, control rats, read-out: AUC0–t in portal vein plasma
  AUC(0-t): 14800 ng·h/mL
[1]
  AUC0-t in femoral vein blood, fold increase in CCl4-induced rats vs control: 4.83 fold
[1]; CCl4-induced rats
  AUC0–t portal vein plasma vs femoral vein plasma, fold higher: 1.28 fold
[1]; control rats
  AUC0–t portal vein plasma vs femoral vein plasma, fold higher: 5.75 fold
[2]
  uptake at 37 °C relative to that at 4 °C: 50.0 times
[3]; liver S9, 0.3 μM EZE
  decrease of formation of EZE-Ph in CCl4-induced rats compared with control rats: 8.80%
[3]; liver S9, 3 μM EZE
  decrease of formation of EZE-Ph in CCl4-induced rats compared with control rats: 12.7%
[3]; liver S9, 30 μM EZE
  decrease of formation of EZE-Ph in CCl4-induced rats compared with control rats: 27.4%
[4]
  +ATP/-ATP ratio: 5.71
[5]; [9]
  AUC(0-t): 40400 ± 1810 ng·h/mL
  Cmax: 6970 ± 807 ng/mL
  Tmax: 0.45 ± 0.11 h
  half-life: 9.58 ± 6.2 h
[5]; [10]
  AUC(0-t): 2470 ± 418 ng·h/mL
  Cmax: 1050 ± 240 ng/mL
  Tmax: 0.083 h
  half-life: 8.96 ± 2.19 h
[5]; [11]
  AUC(0-t): 18300 ± 6990 ng·h/mL
  Cmax: 1340 ± 585 ng/mL
  Tmax: 3 ± 1.41 h
  half-life: 8.98 ± 2.1 h
[5]; [12]
  AUC(0-t): 4170 ± 1140 ng·h/mL
  Cmax: 276 ± 69 ng/mL
  Tmax: 8.8 ± 4.6 h
  half-life: 5.5 ± 0.36 h
[5]; [13]
  AUC0–t, fold higher in CCl4-induced rats than in control rats: 16.4 fold
  AUC0–t, fold higher than that of EZE-Hy: approximately 2.5 fold
[5]; oral administration of 10 mg/kg EZE
  AUC0–t, fold higher in CCl4-induced rats than in control rats: 4.4 fold
[6]
  +ATP/-ATP ratio: 5.64
[7]
  +ATP/-ATP ratio: 65.5
[8]; HQC (800/2400/800 ng/ml)
  Autosampler stability (4°C, 24 h), RE: 6.0%
  Post-extraction stability (room temperature 3 h), RE: 5.1%
  Freeze-thaw stability (−20°C, three cycles), RE: -0.4%
  Short-term stability (room temperature 3 h), RE: 0.3%
[8]; LQC (3.00/9.00/3.00 ng/ml)
  Autosampler stability (4°C, 24 h), RE: 5.3%
  Post-extraction stability (room temperature 3 h), RE: 8.8%
  Freeze-thaw stability (−20°C, three cycles), RE: 0.8%
[8]; LQC and HQC samples, short-term, post-extraction, auto-sampler, three freeze/thaw cycles
  stability in rat plasma under the test conditions: stable
[8]; LQC (EZE/EZE-Ph/EZE-Hy 3.00/9.00/3.00 ng/ml)
  Short-term stability (room temperature 3 h), RE: -1.9%
[8]; room temperature for 2 h
  stability in blood: stable

From paper PMC9785202, “Changes in Disposition of Ezetimibe and Its Active Metabolites Induced by Impaired Hepatic Function: The Influence of Enzyme and Transporter Activities” (Pharmaceutics, 2022)
